Several values for one entry are separate records, joined by “and”; a condition that tells them apart may be missing. Identical values can stand only once.
Experiment: Radiolysis / stability of [18F]DCFPyL over time by HPLC with radiodetection (RCP, free 18F, radioactive impurities)
Type: physicochemical
Procedure: Those of ordinary skill in the art will be aware of techniques and systems for determining the radiochemical purity of a composition. In some cases, the radiochemical purity is determined using an HPLC associated with a radio-detector. Generally, the radiochemical purity is determined under ambient conditions (e.g., ambient temperature, ambient humidity, ambient light, etc.), such as in samples stored under such conditions.
Stability was assessed using reverse phase HPLC on a C18 column with a phosphate buffer/acetonitrile gradient mobile phase, and the elution profile was monitored using both UV and radiochemical detectors. Samples were analyzed either by direct injection onto the HPLC, dilution and injection or including the addition of tetraethylammonium fluoride (TEAF) into the sample before injection.
Known amounts of free ^18F either alone or spiked with TEAF were injected onto the analytic column and the eluent from the column collected over the course of a chromatogram and assaying the radioactivity using a Capintec. […] Adding TEAF into the analytic samples was incorporated into subsequent studies examining potential radiolysis of [^18F]DCFPyL to overcome some of the limitations of free ^18F quantification.
Analytical HPLC method was used. The method employs UV detection at 264 nm for chemical impurities, and an Eckert & Ziegler model B-FC-1000 gamma detector for radiochemical assays.

[1] = T = 2.5 hr, 100 mg/mL ascorbic acid pH 2.0, 256 mCi/mL at EOS
[2] = T = 2.5 hr, 20% ethanol in saline, 52 mCi/mL at EOS
[3] = T = 2.5 hr, 20% ethanol in saline, 65 mCi/mL at EOS
[4] = T = 2.5 hr, 20% ethanol in saline, 85 mCi/mL at EOS
[5] = T = 2.5 hr, control without ascorbic acid, 36% ethanol in saline, 147 mCi/mL at EOS
[6] = T = 3.0 hr, 50 mg/mL ascorbic acid pH 5.8 in final product vial, 20% ethanol, 110 mCi/mL at EOS
[7] = T = 3.0 hr, 100 mg/mL ascorbic acid pH 2.0, 256 mCi/mL at EOS
[8] = T = 3 hr, 20% ethanol in saline, 52 mCi/mL at EOS
[9] = T = 3 hr, 20% ethanol in saline, 65 mCi/mL at EOS
[10] = T = 3 hr, 20% ethanol in saline, 85 mCi/mL at EOS
[11] = T = 3 hr, 100% ethanol, 325 mCi/mL at EOS
[12] = T = 3 hr, control without ascorbic acid, 36% ethanol in saline, 147 mCi/mL at EOS
[13] = T = 3.5 hr, 50 mg/mL ascorbic acid pH 5.8 in final product vial, 20% ethanol, 110 mCi/mL at EOS
[14] = T = 3.5 hr, 100 mg/mL ascorbic acid pH 2.0, 256 mCi/mL at EOS
[15] = T = 3.5 hr, 20% ethanol in saline, 52 mCi/mL at EOS
[16] = T = 3.5 hr, 20% ethanol in saline, 65 mCi/mL at EOS
[17] = T = 3.5 hr, 20% ethanol in saline, 85 mCi/mL at EOS
[18] = T = 3.5 hr, control without ascorbic acid, 36% ethanol in saline, 147 mCi/mL at EOS
[19] = T = 4 hr, 0.5 mg/mL ascorbic acid pH 5.8, 20% ethanol, 105.8 mCi/mL at EOS
[20] = T = 4 hr, 1 mg/mL ascorbic acid pH 5.8, 20% ethanol, 107.0 mCi/mL at EOS
[21] = T = 4 hr, 5 mg/mL ascorbic acid pH 5.8, 20% ethanol, 99.0 mCi/mL at EOS
[22] = T = 4 hr, 20 mg/mL sodium citrate, 20% ethanol, 104.8 mCi/mL at EOS
[23] = T = 4 hr, 50 mg/mL ascorbic acid pH 5.8, 20% ethanol, 139.7 mCi/mL at EOS
[24] = T = 4.0 hr, 50 mg/mL ascorbic acid pH 5.8 in final product vial, 20% ethanol, 110 mCi/mL at EOS
[25] = T = 4.0 hr, 100 mg/mL ascorbic acid pH 2.0, 256 mCi/mL at EOS
[26] = T = 4 hr, 20% ethanol in saline, 52 mCi/mL at EOS
[27] = T = 4 hr, 20% ethanol in saline, 65 mCi/mL at EOS
[28] = T = 4 hr, 20% ethanol in saline, 85 mCi/mL at EOS
[29] = T = 4 hr, 100% ethanol, 325 mCi/mL at EOS
[30] = T = 4 hr, control without ascorbic acid, 36% ethanol in saline, 147 mCi/mL at EOS
[31] = T = 5 hr, 100% ethanol, 325 mCi/mL at EOS

In the case of `O=C(O)CC[C@H](NC(=O)N[C@@H](CCCCNC(=O)c1ccc([18F])nc1)C(=O)O)C(=O)O` [Lot 18F-DCFPyL, 2-(3-{1-carboxy-5-[(6-[18F]fluoro-pyridine-3-carbonyl)-amino]-pentyl}ureido)-pentanedioic acid], the “18F-DCFPyL (RCP)” value [1] is reported as 98.71%, the “Free 18F” value [1] is reported as 0.31% and the “RT 12.0 radioactive impurity” value [1] is reported as 0.52%. The “RT 12.2 radioactive impurity” value [1] was 0.46%, the “18F-DCFPyL (RCP)” value [2] was 98.61% and the “Free F-18” value [2] was 0.86%. The “RT 5.0 radioactive impurity” value [2] was 0.53%, the “18F-DCFPyL (RCP)” value [3] was 95.36% and the “Free F-18” value [3] was 3.97%. For the same molecule, the “RT 5.0 radioactive impurity” value [3] was 0.41%, the “RT 5.9 radioactive impurity” value [3] was 0.26% and the “18F-DCFPyL (RCP)” value [4] was 95.06%. The “Free F-18” value [4] was 4.29%, the “RT 5.0 radioactive impurity” value [4] was 0.31% and the “RT 5.9 radioactive impurity” value [4] was 0.35%. The “18F-DCFPyL (RCP)” value [5] was 88.79%, the “Free F-18” value [5] was 9.66% and the “RT 5.0 radioactive impurity” value [5] was 0.62%. For the same molecule, the “RT 5.9 radioactive impurity” value [5] was 0.93%, the “18F-DCFPyL (RCP)” value [6] was 99.25% and the “Free 18F” value [6] was 0.35%. For the same molecule, the “RT 5.0 radioactive impurity” value [6] was 0.39%, the “RT 5.9 radioactive impurity” value [6] was 0.27% and the “18F-DCFPyL (RCP)” value [7] was 98.46%. For the same molecule, the “Free 18F” value [7] was 0.29%, the “RT 12.0 radioactive impurity” value [7] was 0.69% and the “RT 12.2 radioactive impurity” value [7] was 0.57%. For the same molecule, the “18F-DCFPyL (RCP)” value [8] was 98.53%, the “Free F-18” value [8] was 0.99% and the “RT 5.0 radioactive impurity” value [8] was 0.48%. For the same molecule, the “18F-DCFPyL (RCP)” value [9] was 95.64%, the “Free F-18” value [9] was 4.03% and the “RT 5.0 radioactive impurity” value [9] was 0.34%. For the same molecule, the “18F-DCFPyL (RCP)” value [10] was 95.10%, the “Free F-18” value [10] was 4.26% and the “RT 5.0 radioactive impurity” value [10] was 0.37%. The “RT 5.9 radioactive impurity” value [10] was 0.27%, the “18F-DCFPyL (RCP)” value [11] was 95.71% and the “Free F-18” value [11] was 4.29%. For the same molecule, the “18F-DCFPyL (RCP)” value [12] was 88.94%, the “Free F-18” value [12] was 9.49% and the “RT 5.0 radioactive impurity” value [12] was 0.70%. The “RT 5.9 radioactive impurity” value [12] was 0.87%, the “18F-DCFPyL (RCP)” value [13] was 99.46% and the “Free 18F” value [13] was 0.24%. The “RT 5.0 radioactive impurity” value [13] was 0.31%, the “18F-DCFPyL (RCP)” value [14] was 98.03% and the “Free 18F” value [14] was 0.35%. For the same molecule, the “RT 12.0 radioactive impurity” value [14] was 0.88%, the “RT 12.2 radioactive impurity” value [14] was 0.75% and the “18F-DCFPyL (RCP)” value [15] was 98.55%. For the same molecule, the “Free F-18” value [15] was 0.94%, the “RT 5.0 radioactive impurity” value [15] was 0.52% and the “18F-DCFPyL (RCP)” value [16] was 95.44%. The “Free F-18” value [16] was 4.17%, the “RT 5.0 radioactive impurity” value [16] was 0.39% and the “18F-DCFPyL (RCP)” value [17] was 95.14%. The “Free F-18” value [17] was 4.51%, the “RT 5.0 radioactive impurity” value [17] was 0.35% and the “18F-DCFPyL (RCP)” value [18] was 88.90%. The “Free F-18” value [18] was 9.56%, the “RT 5.0 radioactive impurity” value [18] was 0.59% and the “RT 5.9 radioactive impurity” value [18] was 0.95%. For the same molecule, the “18F-DCFPyL (% RCP)” value [19] was 98.64%, the “Free F-18” value [19] was 1.36% and the “18F-DCFPyL (% RCP)” value [20] was 98.56%. For the same molecule, the “Free F-18” value [20] was 1.44%, the “Free F-18” value (T = 4 hr, 1 mg/mL sodium ascorbate, 20% ethanol, 111.5 mCi/mL at EOS) was 2.61% and the “18F-DCFPyL (% RCP)” value [21] was 99.23%. The “Free F-18” value [21] was 0.77%, the “Free F-18” value (T = 4 hr, 5 mg/mL sodium ascorbate, 20% ethanol, 114.6 mCi/mL at EOS) was 1.23% and the “Free F-18” value [22] was 20.65%. The “RT 3.4 radioactive impurity” value [22] was 0.32%, the “RT 3.7 radioactive impurity” value [22] was 0.35% and the “18F-DCFPyL (% RCP)” value [23] was 99.69%. The “Free F-18” value [23] was 0.31%, the “RT 4.8 radioactive impurity” value (T = 4 hr, 50 mg/mL ascorbic acid pH 5.8, 20% ethanol, 139.7 mCi/mL at EOS, MPA = 0.25% of main peak) was “<MPA” and the “18F-DCFPyL (RCP)” value [24] was “above 99%”. The “Free 18F” value [24] was 0.26%, the “RT 5.0 radioactive impurity” value [24] was 0.37% and the “18F-DCFPyL (RCP)” value [25] was 98.0% and 97.98%. For the same molecule, the “Free 18F” value [25] was 0.37%, the “RT 12.0 radioactive impurity” value [25] was 0.96% and the “RT 12.2 radioactive impurity” value [25] was 0.69%. For the same molecule, the “18F-DCFPyL (RCP)” value (T = 4.0 hr, 100 mg/mL ascorbic acid pH 2.0, 256 mCi/mL at EOS, listed as [^18F]DCFPYL) was 98.0%, the “18F-DCFPyL (RCP)” value [26] was 98.53% and the “Free F-18” value [26] was 0.98%. The “RT 5.0 radioactive impurity” value [26] was 0.49%, the “18F-DCFPyL (RCP)” value [27] was 95.50% and the “Free F-18” value [27] was 4.23%. For the same molecule, the “RT 5.0 radioactive impurity” value [27] was 0.27%, the “18F-DCFPyL (RCP)” value [28] was 94.93% and the “Free F-18” value [28] was 4.73%. The “RT 5.0 radioactive impurity” value [28] was 0.34%, the “18F-DCFPyL (RCP)” value [29] was 95.60% and the “Free F-18” value [29] was 4.40%. The “18F-DCFPyL (RCP)” value [30] was 89% and 89.06%, the “Free F-18” value [30] was 9.27% and the “RT 5.0 radioactive impurity” value [30] was 0.71%. The “RT 5.9 radioactive impurity” value [30] was 0.96%, the “18F-DCFPyL (RCP)” value (T = 4 hr, control without ascorbic acid, 36% ethanol in saline, 147 mCi/mL at EOS, listed as [^18F]DCFPYL) was 89% and the “18F-DCFPyL (RCP)” value [31] was 95.58%. The “Free F-18” value [31] was 4.42%, the “Free F-18” value (T = 6 hr, 0.5 mg/mL ascorbic acid pH 5.8, 20% ethanol, 105.8 mCi/mL at EOS) was 1.44% and the “18F-DCFPyL (% RCP)” value (T = 6 hr, 1 mg/mL ascorbic acid pH 5.8, 20% ethanol, 107.0 mCi/mL at EOS) was 98.43%.

From patent US20250019350A1, “SYNTHESIS OF THE PROSTATE SPECIFIC MEMBRANE ANTIGEN (PSMA) RADIOLABELED INHIBITOR [18F]DCFPYL” (Progenics Pharmaceuticals, Inc, priority 2023, published 2025)
